Experimental data from patent US5830910A (priority 1995, dated 1998).

Key:
[1] = test system: cultured hippocampal neurons; experiment: calcium ionophore A23187 neurotoxicity; type: cell-based, rat
Description: (§1) Dissociated embryonic rat hippocampal cell cultures were established and maintained. All procedures conformed with the NIH Guide for the Care and Use of Laboratory Animals and were approved by the University of Kentucky Animal Care and Use Committee. Cultures were maintained on a polyethyleneimine-coated substrate in plastic 35-mm dishes or 96 wall plates (for cell survival studies) or glass-bottom 35-mm dishes (for [Ca^2+ ]i imaging studies). The cell density was ^~ 70-100 cells/mm^2. Cells were maintained in Eagle's minimum essential medium supplemented 10% with fetal bovine serum and containing 20 mM sodium pyruvate. […] Aβ25-35 (Bachem, lot ZJ744) and Aβ1-40 (Bachem, lot ZK600) were stored in the lyophilized form, and stocks were prepared immediately before use by dissolving the peptide at a concentration of 1 mM in sterile distilled water. […] Glutamate and colchicine (Sigma) were prepared as 200-500x stocks in saline. Cytochalasins D and E (Sigma) and calcium ionophore 4-bromo-A23187 (Calbiochem) were prepared as 500x stocks in dimethyl sulfoxide. Vitamin E (α-tocopherol; Sigma) was prepared as a 500x stock in ethanol. Nordihydroguaiaretic acid and FeSo4 were prepared as 500x stocks in sterile water.
Neuronal survival was quantified by counting viable neurons in the same microscope fields (10x objective) immediately before experimental treatment and at time points after treatment. In addition, cells were grown in 96-well plates and Alamar blue fluorescence (Alamar Laboratories)was quantified by using a fluorescence plate reader. Alamar Blue is a non-fluorescent substrate that, after reduction by cell metabolites, becomes fluorescent. […] Viability of the remaining neurons was assessed by morphological criteria. […] Survival values were expressed as percentages of the initial number of neurons present before experimental treatment. […]
FIG. 7. Cultures were pretreated for 1 h with 0.2% dimethylsulfoxide (control) or 100 nM cytochalasin D. Calcium ionophore A23187 was then added at the indicated concentrations and neuronal survival was assessed 8 h later. […]

[2] = test system: cultured hippocampal neurons; experiment: hydrogen peroxide neurotoxicity; type: cell-based, rat
Description: as §1
Neuronal survival was quantified by counting viable neurons in the same microscope fields (10x objective) immediately before experimental treatment and at time points after treatment. In addition, cells were grown in 96-well plates and Alamar blue fluorescence (Alamar Laboratories)was quantified by using a fluorescence plate reader. Alamar Blue is a non-fluorescent substrate that, after reduction by cell metabolites, becomes fluorescent. […] Viability of the remaining neurons was assessed by morphological criteria. Neutrons with intact neurites of uniform diameter and a soma with a smooth, round appearance were considered viable, whereas neurons with fragmented neurites and a vacuolated or swollen soma were considered nonviable. Survival values were expressed as percentages of the initial number of neurons present before experimental treatment. Statistical comparisons were made using ANOVA and Scheffe post-hoc tests for pairwise comparisons.
FIG. 15. […] Cultures were pretreated for 1 h with vehicle (Control), 100 nM cytochalasin D (CyD), or 50 μg/ml vitamin E (vE) and then exposed for 20 h to the indicated concentrations of hydrogen peroxide. Data are mean and SEM values of determinations made in four separate cultures.

[3] = test system: cultured hippocampal neurons; experiment: iron (FeSO4) neurotoxicity; type: cell-based, rat; conditions: 50 μg/ml vitamin E or 2 μM NDGA, 1 h preincubation
Description: as §1
(§2) Neuronal survival was quantified by counting viable neurons in the same microscope fields (10x objective) immediately before experimental treatment and at time points after treatment. In addition, cells were grown in 96-well plates and Alamar blue fluorescence (Alamar Laboratories)was quantified by using a fluorescence plate reader. Alamar Blue is a non-fluorescent substrate that, after reduction by cell metabolites, becomes fluorescent. Usually neurons that died in the time intervals (20-48 h) between examination points were absent. Viability of the remaining neurons was assessed by morphological criteria. Neutrons with intact neurites of uniform diameter and a soma with a smooth, round appearance were considered viable, whereas neurons with fragmented neurites and a vacuolated or swollen soma were considered nonviable. Survival values were expressed as percentages of the initial number of neurons present before experimental treatment. Statistical comparisons were made using ANOVA and Scheffe post-hoc tests for pairwise comparisons.
FIG. 8. Cultures were preincubated 1 h in the presence of 0.5% dimethylsulfoxide (control), 100 nM cytochalasin D, 50 μg/ml vitamin E (VitE), or 2 μM nordihydroguairetic acid (NDGA). Cultures were then exposed for 6 h to the indicated concentrations of FeSO4 and neuronal survival was quantified. Values represent the means and SEM of determinations made in four separate cultures. *P<0.001 compared to value for cultures exposed to 100 μM FeSO4 alone.

[4] = test system: cultured hippocampal neurons; type: cell-based, rat; conditions: 48-h period, added in soluble form
Description: as §1, §2
FIG. 12. (A) Cultures were pretreated for 1 h with vehicle 0.2% dimethyl sulfoxide (Control) or 100 nM cytochalasin D (CyD) and were exposed to the indicated concentrations of Aβ25-35 for 48 h. Data are mean and SEM values of determinations made in four separate cultures.
(B) Cultures were pretreated for 1 h with the indicated concentrations of cytochalasin D and then exposed to 50 μM Aβ25-35; parallel cultures were exposed to cytochalasin D alone (Control) . Data are mean and SEM values of determinations made in four separate cultures.
FIG. 14. Cultures were exposed to 100 nM colchicine; 50 μM Aβ; 100 nM colchicine plus 50 μM Aβ; 100 nM cytochalasin E (CyE) plus Aβ (colchicine and cytochalasin E were added 1 h before Aβ); neuronal survival was assessed 48 h later. Data are mean and SEM values of determinations made in four separate cultures. *p<0.01, compared with values for control or colchicine alone. **p<0.01, compared with value for cultures exposed to Aβ alone.

[5] = aggregation of peptides in culture medium; type: physicochemical
Description: as §1

CNc1ccc2oc(C[C@H]3O[C@@]4(CC[C@H]3C)O[C@H]([C@H](C)C(=O)c3ccc[nH]3)[C@H](C)C[C@H]4C)nc2c1C(=O)O [A23187]
neurons killed ([1]; 1 μM): essentially all neurons being killed
neuronal survival ([1]; 100-1000 nM): concentration-dependent reduction in neuronal survival

OO [Hydrogen peroxide, hydrogen peroxide, reference compound]
neuronal survival ([2]; 20-h exposure): concentration-dependent reduction in neuronal survival

Cc1c(C)c2c(c(C)c1O)CCC(C)(CCCC(C)CCCC(C)CCCC(C)C)O2 (stereo not drawn) [Vitamin E, α-tocopherol, reference compound]
effect on neurotoxicity of iron [3]: completely blocked
effect on neurotoxicity of hydrogen peroxide ([2]; 50 μg/ml, 1 h pretreatment, 20 h): largely prevented

Aβ1-40: Aβ1-40 (Bachem, lot ZK600), amyloid β-peptide [reference compound]
neurotoxicity, preliminary characterization [4]: progressively killed neurons
aggregation in culture medium [5]: aggregated rapidly
